The results in this text go back to paper PMC6395927, “Rufomycin Targets ClpC1 Proteolysis in Mycobacterium tuberculosis and M. abscessus” (Antimicrobial Agents and Chemotherapy, 2019).

Usually IC50 stands for the midpoint of a concentration-inhibition curve. As a reminder, the inhibition is the share of the control response that was lost under treatment. A low value points to little suppression.

In brackets after ≈: the same amount, converted by molar mass. Entries after “also recorded” stand apart in the source; their conditions may differ. Like-named read-outs stand apart in the source and are kept apart here.

One test relates to M. abscessus. The experiment in a line: MBC against M. abscessus. The conditions noted are these: Mycobacteroides abscessus.
The test system of test [1] is M. tuberculosis Erdman (ATCC 35801) in J774A.1 macrophages. The test is classed as cell-based, Mycobacterium tuberculosis.
A further test concerns Vero cell (ATCC CRL-81). Put plainly: cells. The format is cell-based. The conditions noted are these: Chlorocebus sabaeus, 72 h.
For test [2], the system named is M. abscessus in bone marrow-derived macrophages. The experiment in a line: Intracellular survival assay in BMDMs. The format is cell-based, Mycobacterium abscessus. The conditions noted are these: 2 days, 5 and 10 μM. As to the method: Bone marrow-derived macrophages (BMDMs) were isolated from the femurs and tibias of C57BL/6 mice (5 to 6 weeks old) and differentiated by culturing for 4 days in DMEM containing 10% (vol/vol) FBS and 25 ng/ml of macrophage colony-stimulating factor (M-CSF; R&D, Minneapolis, MN). The final densities of differentiated BMDMs were 1 × 10^5 to 3 × 10^5 per well in 48-well plates. Cells were infected for 2 h with M. abscessus at a multiplicity of infection (MOI) of 5. Next cells were washed with PBS and incubated in DMEM containing 50 μg/ml of gentamicin (Sigma-Aldrich). RUFI and clarithromycin (CLR) were added to the media to achieve final concentrations of 5 and 10 μM, respectively, and then the cultures were incubated for 2 days. The supernatant was removed, and cells were lysed in sterile distilled water for 30 min at 37°C. Cell lysates were serially diluted, plated on 7H10 agar, and incubated at 37°C for 2 to 3 days for enumeration of CFU.

For another test, the system named is M. avium (ATCC 15769). The experiment in a line: microbe, parasite or virus in culture. The format is cell-based. The conditions noted are these: Mycobacterium avium, ATCC15769; M. avium; read-out: MIC.
The test system of test [3] is nonreplicating cultures of M. tuberculosis. Put plainly: microbe, parasite or virus in culture. The test is classed as cell-based, Mycobacterium tuberculosis.
The test system of a further test is M. tuberculosis. Put plainly: microbe, parasite or virus in culture. The test is classed as cell-based, Mycobacterium tuberculosis.
A further test relates to M. marinum (ATCC 927). Put plainly: microbe, parasite or virus in culture. The format is cell-based. The conditions noted are these: Mycobacterium marinum, ATCC927; M. marinum; read-out: MIC.
Test [4] relates to M. smegmatis (ATCC 700084). Put plainly: microbe, parasite or virus in culture. The format is cell-based. The conditions noted are these: Mycolicibacterium smegmatis, ATCC700084; M. smegmatis; read-out: MIC.
The subject of test [5] is Staphylococcus aureus (ATCC 29213). The experiment in a line: MIC against nonmycobacteria (OD570). The format is cell-based. The conditions noted are these: ATCC29213, S. aureus. The text has this:
(§1) Standard compounds used were ampicillin (AMP) and gentamicin (GEN). […] Amphotericin B (AmphB) and ketoconazole (KETO) were used as standard compounds.

Test [6] deals with Candida albicans (ATCC 10231). The experiment in a line: MIC against nonmycobacteria (OD570). The test is classed as cell-based. The conditions noted are these: ATCC10231, C. albicans.
From the text: as §1

The test system of test [7] is Escherichia coli (ATCC 25922). Put plainly: MIC against nonmycobacteria (OD570). The conditions noted are these: ATCC25922, E. coli. The test is classed as cell-based.
From the text: as §1

Test [8] relates to M. tuberculosis strain H37Rv (ATCC 27294). The experiment in a line: microbe, parasite or virus in culture. The test is classed as cell-based, Mycobacterium tuberculosis. The conditions noted are these: Mycobacterium tuberculosis.
The test system of test [9] is M. tuberculosis 5 global clade representatives. The experiment in a line: microbe, parasite or virus in culture. The test is classed as cell-based. The conditions noted are these: Mycobacterium tuberculosis, read-out: MICs.
The target of a further test is ClpC1 (Mycobacterium tuberculosis, UniProt P9WPC9). The format is biochemical, M. tuberculosis.
Another test deals with M. bovis (ATCC 35734). The experiment in a line: microbe, parasite or virus in culture. The format is cell-based. The conditions noted are these: Mycobacterium tuberculosis variant bovis, ATCC35734.
In the next test the test system is M. chelonae (ATCC 35752). The experiment in a line: microbe, parasite or virus in culture. The conditions noted are these: Mycobacteroides chelonae, ATCC35752; M. chelonae; read-out: MIC. The test is classed as cell-based, Mycobacterium chelonae.
The test system of test [10] is OVCAR 3 ovarian cancer cells. Put plainly: Cytotoxicity against cancer cell lines (CellTiter 96). The conditions noted are these: Homo sapiens; OVCAR 3, 72 h. The format is cell-based. As to the method:
(§2) Human melanoma cancer cells (MDA-MB-435), human breast cancer cells (MDA-MB-231), and human ovarian cancer cells (OVCAR3) were purchased from the American Type Culture Collection (Manassas, VA). Each cell line was propagated at 37°C in 5% CO2 in RPMI 1640 medium supplemented with FBS (10%), penicillin (100 U/ml), and streptomycin (100 μg/ml). Cells in log phase were harvested by trypsinization, followed by two washing cycles to remove all traces of enzyme. A total of 5,000 cells were seeded per well of a 96-well clear, flat-bottom plate (Microtest 96; Falcon) and incubated overnight (37°C in 5% CO2). Samples dissolved in DMSO were then diluted and added to the respective wells. The cells were incubated in the presence of test substance for 72 h at 37°C and evaluated for viability with a commercial absorbance assay (CellTiter 96 AQueous One Solution cell proliferation assay; Promega Corp., Madison, WI) that measured viable cells. IC50 values are expressed in micromolar values relative to the solvent (DMSO) control.

For test [11], the system named is MDA-MB-435 melanoma cells. The test is described as above. The test is classed as cell-based. The conditions noted are these: Homo sapiens, MDA-MB-435, 72 h. As to the method:
as §2

In test [12] the test system is MDA-MB-231 breast cancer cells. Described as above. The format is cell-based. The conditions noted are these: Homo sapiens, MDA-MB-231, 72 h. The procedure:
as §2

ClpC1, sequence (P9WPC9 whole entry): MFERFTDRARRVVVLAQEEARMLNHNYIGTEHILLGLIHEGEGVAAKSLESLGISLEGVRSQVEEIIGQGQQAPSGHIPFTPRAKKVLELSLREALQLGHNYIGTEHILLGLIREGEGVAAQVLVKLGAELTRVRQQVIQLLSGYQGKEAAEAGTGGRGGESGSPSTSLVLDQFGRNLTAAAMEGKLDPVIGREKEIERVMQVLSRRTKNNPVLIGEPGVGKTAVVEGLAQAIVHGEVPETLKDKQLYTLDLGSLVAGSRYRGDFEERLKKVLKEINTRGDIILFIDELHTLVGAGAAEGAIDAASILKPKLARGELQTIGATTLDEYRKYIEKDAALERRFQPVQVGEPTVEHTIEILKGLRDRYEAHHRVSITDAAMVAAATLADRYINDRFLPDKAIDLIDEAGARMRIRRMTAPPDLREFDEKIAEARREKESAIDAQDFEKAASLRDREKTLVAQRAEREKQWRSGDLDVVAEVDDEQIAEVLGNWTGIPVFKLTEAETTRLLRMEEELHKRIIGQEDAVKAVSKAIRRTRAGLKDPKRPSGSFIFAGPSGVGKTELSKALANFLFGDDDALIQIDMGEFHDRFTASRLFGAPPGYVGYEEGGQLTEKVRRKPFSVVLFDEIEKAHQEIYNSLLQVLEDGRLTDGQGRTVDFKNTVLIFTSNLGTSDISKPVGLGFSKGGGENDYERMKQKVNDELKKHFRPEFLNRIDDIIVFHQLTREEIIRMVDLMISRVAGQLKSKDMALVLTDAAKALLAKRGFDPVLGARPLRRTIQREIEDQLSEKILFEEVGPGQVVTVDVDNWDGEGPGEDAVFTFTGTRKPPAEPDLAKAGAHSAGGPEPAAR

Turning to `C/C=C/C[C@@H]1NC(=O)[C@H](CC(C)C)N2C(=O)C(C[C@H](C)[C@H]2O)N(C)C(=O)[C@H](C)NC(=O)[C@H](Cc2ccc(O)c([N+](=O)[O-])c2)NC(=O)[C@H](CC(C)C)N(C)C(=O)[C@H](Cc2cn(C(C)(C)C3CO3)c3ccccc23)NC1=O` (stereo partly drawn) [RUFI, rufomycin I], the MBC in the test with M. abscessus was 1.2 µM (≈ 1.25 µg/mL); in test [3], “lacks this activity”; with M. tuberculosis (Mycobacterium tuberculosis, read-out: MBC (minimum bactericidal concentration)), 0.4 µM (≈ 0.417 µg/mL). For the same compound, the “activity against M. tuberculosis in murine macrophages (CFU)” value in test [1] is “even more potent than rifampin”. Also, the IC50 in the test on Vero cell (ATCC CRL-81) is above 50 µM; in [10] it was 14 µM; in [11], 12 µM; in test [12] it was 7.7 µM. The “activity against M. abscessus in BMDMs (CFU)” value in test [2] was “as effective as clarithromycin”. The MIC in the test on M. avium (ATCC 15769) was 1.75 µM (≈ 1.82 µg/mL); in [3] (Mycobacterium tuberculosis) it was above 10 µM; with M. marinum (ATCC 927), below 0.02 µM; in test [4] it was 0.073 µM (≈ 0.0761 µg/mL); in test [5], above 10 µM; in test [6], above 10 µM. For the same compound, the MIC was above 10 µM in [7]; 0.02 µM (≈ 0.0208 µg/mL) in [8]; 0.01 µM (≈ 0.0104 µg/mL) in test [8] (read-out: MIC against M. tuberculosis); 0.003 to 0.011 µM (≈ 0.00313 to 0.0115 µg/mL) in test [9]; below 0.02 µM with M. bovis (ATCC 35734); 4.24 µM (≈ 4.42 µg/mL) in the test on M. chelonae (ATCC 35752). In test [3] (Mycobacterium tuberculosis), this compound came in with an inhibition at 10 µM of 75%. For the same compound, the “MBC (minimum bactericidal concentration)” value with M. tuberculosis amounted to 0.40 µM (≈ 0.417 µg/mL). On ClpC1, the “effect on ClpC1 ATPase activity” value was “no significant effect; also recorded: mild and insignificant inhibitory effect”.
